# Source: patent US9388146B2, “Crystalline forms of tyrosine kinase inhibitors and their salts” (Purdue Pharma L.P., priority 2013, dated 2016)
# Read-outs that look alike come from different tables or passages of the source.
# Columns and labels:
# [1] = Rat pharmacokinetics (plasma, LC-MS/MS, non-compartmental analysis); assay type: in vivo; settings: for bioavailability: oral
# Procedure: (§1) Compound I was dosed to nonfasted male CD IGS rats (weighting 180-250 g, Charles River Laboratories) by single intravenous (IV, n=3/group) or oral gavage (PO, n=4/group, including control rat group for drug-free blood and brain collection) administration at a nominal dose levels of 3 mg/kg (IV) or 5 mg/kg (IV) and 10, 50, 100 mg/kg (PO) respectively. Compound was formulated in either DMSO/Solutol® HS 15/phosphate buffered saline, pH 7.4 (PBS) for both IV and PO dosing, or 10% (w/v) Povidone K12 in water for IV dosing or 10% (w/v) Povidone K25 in water for PO dosing, or 18% (w/v) CrosPovidone in water for PO dosing. An intravenous profile was obtained by taking serial or terminal blood samples at 3, 10, 30, 60, 120, 240, 360, 1440 min post dose. An oral profile was obtained by taking serial or terminal blood samples at 10, 30, 60, 120, 240, 360, 480, 1440 min post dose.
# (§2) Animals were sedated under general inhalant anesthesia (3% isoflurane) for blood collection by cardiac puncture. Blood aliquots (300-400 μL) were collected in tubes coated with lithium heparin, mixed gently, then kept on ice and centrifuged at 2,500×g for 15 minutes at 4° C., within 1 hour of collection. For control animals, blood was collected by cardiac puncture. The plasma was then harvested and kept frozen at −20° C. until further processing. Plasma Sample Collection from Cannulated Rats. Blood collection was carried out from the jugular vein catheter. Blood aliquots (300-400 μL) were collected in tubes coated with lithium heparin, mixed gently, then kept on ice and centrifuged at 2,500×g for 15 minutes at 4° C., within 1 hour of collection. For control animals, blood was collected by cardiac puncture. The plasma was then harvested and kept frozen at −20° C. until further processing.
# (§3) Plasma and brain samples were subjected to quantitative analysis by LC-MS/MS using compound-specific mass transitions. Drug concentration-time profiles were generated and non-compartmental PK analysis (using WinNonlin) used to generate estimates of half-life (T1/2), clearance, volume of distribution (Vss), and oral bioavailability (F %) (Gabriesson, J. and Weiner, D. Pharmacokinetic and Pharmacodynamic Data Analysis: Concepts and Applications. Swedish Pharmaceutical Press. 1997). The concentrations of the test compound in brain (ng/g brain tissue) and in plasma (ng/mL) as well as the ratio of the brain concentration and the plasma concentration at each time point were determined and reported.
# TrkC = TrkC (Homo sapiens, UniProt Q16288); experiment: PathHunter whole cell functional assay, NT3 stimulated TrkC activation; assay type: cell-based; settings: triplicate
# TrkB = TrkB (Homo sapiens, UniProt Q16620); experiment: PathHunter whole cell functional assay, BDNF stimulated TrkB activation; assay type: cell-based; settings: triplicate
# SNL rats = experiment: Spinal nerve ligation (SNL) mono-neuropathic pain model in rat; assay type: in vivo; settings: oral administration
# Procedure: The surgical procedure will be performed according to the method firstly described by Kim and Chung (Kim S H, Chung J M. Pain. 1992; 50(3):355-63.). This procedure will result in tactile allodynia in the left hindpaw. […] The dose-response anti-allodynia effects of test compound: on day 14 after surgery, rats were treated with test article at one of four doses, vehicle or positive control by oral gavage, and PWT was determined by calibrated von Frey filaments at time points of 0 (right before the drug dosing, Pre-Dose Baseline), 0.5, 1, 2, 4 and 6 hr. The anti-allodynia effects of repeated administration of test article: Administration of test article was started on day 7 after surgery, once a day for 7 days. PWT was determined by calibrated von Frey filaments, 2 hour after test article dosing each day. After 7 days dosing, the measurement were continued, every other day without compound dosing for another 7 days. PWT was determined at the time points as given above.
# [2] = Rat brain and plasma concentration after IV dosing; assay type: in vivo; settings: male, CD IGS, dose 3 and 5 mg/kg
# Procedure: as §1, §2
# Immediately after the blood sampling, rats were decapitated and the whole brains were quickly removed, rinsed with cold saline (0.9% NaCl, g/mL), surface vasculature ruptured, blotted with dry gauze, weighed and kept on ice until further processing within 1 hour of collection. Each brain was homogenized in 3 mL cold phosphate-buffered saline, pH 7.4 for 10 seconds on ice using Power Gen 125. The brain homogenate from each brain was then stored at −20° C. until further processing.
# as §3
# CCI rats = experiment: Chronic constriction injury (CCI) model of neuropathic pain in rat; assay type: in vivo; settings: for observed side effects (drowsiness, motor incoordination, abnormality): oral dosing
# Excerpt: The CCI model is one of the most commonly used mono-neuropathic pain model firstly described in details by Bennett and Xie (Bennett G J, Xie Y K. Pain. 1988; 33(1):87-107). It mimics important clinical chronic pain symptoms such as mechanical allodynia and thermal hyperalgesia. Chronic constriction injury of the sciatic nerve was produced by tying four loose ligatures around the left sciatic nerve according to the method of Bennett and Xie. […] Calibrated von Frey filaments were used to determine the lowest mechanical (tactile) threshold required to evoke a brisk paw withdrawal reflex in the rat hindpaws. Rats were allowed to acclimatize in wire mesh cages for 15-20 min prior to von Frey testing. Assessment of paw withdrawal thresholds (PWTs) using von Frey filaments was undertaken prior to CCI-surgery (pre-surgery baseline on day 0). Before the drug dosing on day 14, the pre-dose baseline was recorded for each rat. […] Drug-naïve CCI-rats (n=4-6 per group) were used. The oral (PO) gavage vehicle was either 10% (w/v) Povidone K25 in water for PO dosing, or 18% (w/v) CrosPovidone in water for PO dosing, or 0.5% CMC-Na/0.1% Tween 80 in distilled water for PO dosing. The positive control gabapentin was dissolved in the vehicle and orally given at 100 mg/kg (by oral gavage). Test article was dissolved or suspended in the vehicle and orally given at 25, 50, 100 and 150 mg/kg. Each CCI-rat was administered a single oral dose of test article, gabapentin or vehicle control, 2 hours before assessment of PWT.
# [3] = Accelerated stability tests by XRPD and Raman; assay type: physicochemical; settings: 1 week
# Procedure: Approximately 2 mg of sample was gently compressed on the XRPD zero back ground single obliquely cut silica sample holder. The sample was then loaded into a D/MAX 2200 X-ray powder diffractometer (Rigaku) or a Philips X-Pert MPD diffractometer and analyzed using the following experimental conditions (Tube anode: Cu; Generator tension: 40 kV; Tube current: 40 mA; Wavelength alpha1: 1.54056 Å; Wavelength alpha2: 1.5444 Å; Start angle [2 theta]: 5; End angle [2 theta]: 50; and Continuous scan). For suspected novel forms a slightly slower scan speed was used over a range of 4-40° 2θ.
# Samples were analyzed by a Nicolet Almega XR Dispersive Raman Microscope for its Raman spectrum using the following conditions (Exposure Time: 1.0 s; Acquisition No: 10; Pinhole Size: 25, 50 or 100 μm; Wavelength range: 2000˜300 cm^−1 (single grating); Laser: […] 100% power; Objective: 20×/0.40 or 50×/0.75 (magnifier/numerical aperture number)). Then the measured Raman spectra were corrected by baseline subtraction using the software OMNIC™ v7.3.
# [4] = test system: CFA-induced rat inflammatory pain; experiment: Rat CFA-induced inflammatory pain model; assay type: in vivo; settings: 50 μL of 1 mM s.c. into paw 3 hours after CFA, FIG. 1
# Procedure: Hyperalgesia was induced by subcutaneously injecting 50 μL of CFA (Sigma-Aldrich, St. Louis, Mo., USA) into the plantar surface of the left hind paw of the rats using a 30-gauge hypodermic needle under sevoflurane anesthesia. The classical signs of inflammation, including edema and redness, for up the last day of tests were recorded. To assess the effect of test article on CFA-induced inflammatory pain, the rats were anesthetized with sevoflurane 3 hours after CFA injection and then injected 50 μL of either 1 mM test article (n=6) or Saline (n=4) subcutaneously (S.C.) into the same site as the CFA injection, using a 30-gauge hypodermic needle under sevoflurane anesthesia, according to published method (Ueda K., et al, J Pharmacol. Sci., 2010; 112(4):438-43). Paw withdrawal latencies (thermal hyperalgesia) are measured before and at […] 2, 4, and 7 days after CFA injection. Mechanical thresholds were also measured in the same way with either Formula 1 compound (n=6) or Saline (n=4) at similar different time points (for example, 1, 3 hour and 3 days). The noxious heat and mechanical thresholds were separately measured in each group of rats. The threshold was measured 3-5 times in each rat and then averaged. Stimulus interval was 5 min.
# [5] = male, CD IGS, plasma, IV, 3 mg/kg, mean
# [6] = male, CD IGS, plasma, PO, 100 mg/kg, mean
# TrkB, sequence (Q16620 32-822, species assumed): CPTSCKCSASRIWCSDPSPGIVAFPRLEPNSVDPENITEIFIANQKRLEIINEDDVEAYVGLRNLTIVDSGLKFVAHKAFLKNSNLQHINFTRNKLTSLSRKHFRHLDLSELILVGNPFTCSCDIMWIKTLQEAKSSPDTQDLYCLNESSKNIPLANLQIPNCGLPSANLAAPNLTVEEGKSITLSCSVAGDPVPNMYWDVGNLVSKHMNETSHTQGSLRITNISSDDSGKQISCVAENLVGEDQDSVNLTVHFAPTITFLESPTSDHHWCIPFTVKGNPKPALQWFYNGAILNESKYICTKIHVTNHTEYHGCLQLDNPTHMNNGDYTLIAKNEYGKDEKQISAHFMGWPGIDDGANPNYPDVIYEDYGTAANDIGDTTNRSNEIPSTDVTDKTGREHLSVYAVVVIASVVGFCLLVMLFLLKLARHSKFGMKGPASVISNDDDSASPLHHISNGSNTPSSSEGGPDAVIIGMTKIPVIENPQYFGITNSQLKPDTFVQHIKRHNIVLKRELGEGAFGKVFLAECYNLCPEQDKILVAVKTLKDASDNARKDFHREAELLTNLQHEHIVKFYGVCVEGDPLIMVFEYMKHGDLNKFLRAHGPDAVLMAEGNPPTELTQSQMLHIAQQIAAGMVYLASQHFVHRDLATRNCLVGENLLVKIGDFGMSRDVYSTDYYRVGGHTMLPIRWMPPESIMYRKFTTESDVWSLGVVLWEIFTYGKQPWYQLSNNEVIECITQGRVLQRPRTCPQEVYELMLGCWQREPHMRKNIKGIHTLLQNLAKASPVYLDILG
# TrkC, sequence (Q16288 32-839, species assumed): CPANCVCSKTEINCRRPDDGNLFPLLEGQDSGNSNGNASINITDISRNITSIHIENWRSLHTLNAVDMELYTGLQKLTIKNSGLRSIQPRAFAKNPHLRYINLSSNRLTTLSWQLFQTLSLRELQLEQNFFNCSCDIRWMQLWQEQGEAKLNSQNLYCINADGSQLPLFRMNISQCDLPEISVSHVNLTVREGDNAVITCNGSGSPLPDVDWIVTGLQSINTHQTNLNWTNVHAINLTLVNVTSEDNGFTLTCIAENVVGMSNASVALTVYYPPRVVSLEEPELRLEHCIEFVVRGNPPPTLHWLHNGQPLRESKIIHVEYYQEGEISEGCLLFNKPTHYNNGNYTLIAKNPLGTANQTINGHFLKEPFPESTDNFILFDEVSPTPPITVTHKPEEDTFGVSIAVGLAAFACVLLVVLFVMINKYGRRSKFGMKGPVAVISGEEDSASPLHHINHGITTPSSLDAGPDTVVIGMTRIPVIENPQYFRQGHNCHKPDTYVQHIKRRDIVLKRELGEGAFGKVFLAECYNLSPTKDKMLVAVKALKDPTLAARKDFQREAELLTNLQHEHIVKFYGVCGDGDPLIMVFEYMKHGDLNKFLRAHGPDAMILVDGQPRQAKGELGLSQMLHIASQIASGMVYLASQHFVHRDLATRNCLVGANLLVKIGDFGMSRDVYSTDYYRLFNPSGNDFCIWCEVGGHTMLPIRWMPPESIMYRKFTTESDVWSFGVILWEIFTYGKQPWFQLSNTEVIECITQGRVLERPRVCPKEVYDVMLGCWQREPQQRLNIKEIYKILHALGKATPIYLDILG
smiles,measurement,setting,value
"O=C(O)c1ccc(Nc2cc(N3CCN(C4CCCCC4)CC3)c3noc4c3c2C(=O)c2ccccc2-4)cc1 [Compound 701, 4-((3-(4-cyclohexylpiperazin-1-yl)-6-oxo-6H-anthra[1,9-cd]isoxazol-5-yl)amino)benzoic acid]",bioavailability,"[1]; male, CD IGS, plasma",< 20%
O=C(O)c1ccc(Nc2cc(N3CCN(C4CCCCC4)CC3)c3noc4c3c2C(=O)c2ccccc2-4)cc1 [Compound C],IC50,TrkC,> 10 µM
same,IC50,TrkB,> 10 µM
"O=C([O-])c1ccc(Nc2cc(N3CCN(C4CCCCC4)CC3)c3noc4c3c2C(=O)c2ccccc2-4)cc1.[Na+] [Compound I, Sodium 4-((3-(4-cyclohexylpiperazin-1-yl)-6-oxo-6H-anthra[1,9-cd]isoxazol-5-yl)amino)benzoate]","effect on mechanical allodynia (PWT, von Frey)",SNL rats,significantly reduced mechanical allodynia
same,concentration at 30 min,"[2]; brain, 30 min, read-out: Brain concentration",153 ng/g
same,concentration at 60 min,"[2]; brain, 60 min, read-out: Brain concentration",120 ng/g
same,concentration at 180 min,"[2]; brain, 180 min, read-out: Brain concentration",23 ng/g
same,Kp at 30 min,"[2]; brain/plasma, 30 min, read-out: Ratio Brain/Plasma",0.014
same,Kp at 60 min,"[2]; brain/plasma, 60 min, read-out: Ratio Brain/Plasma",0.018
same,Kp at 180 min,"[2]; brain/plasma, 180 min, read-out: Ratio Brain/Plasma",0.019
same,concentration at 30 min,"[2]; plasma, 30 min, read-out: Plasma Concentration",11300 ng/mL
same,concentration at 60 min,"[2]; plasma, 60 min, read-out: Plasma Concentration",8160 ng/mL
same,concentration at 180 min,"[2]; plasma, 180 min, read-out: Plasma Concentration",1830 ng/mL
same,"observed side effects (drowsiness, motor incoordination, abnormality)",CCI rats,no such effect or other abnormality was observed
same,more effective in suppressing mechanical allodynia compared to gabapentin,CCI rats; same oral dose of 100 mg/kg,about 100%
same,"effect on mechanical allodynia (PWT, von Frey)","CCI rats; single oral dose 25, 50, 100 and 150 mg/kg, 2 hours before assessment, FIG. 2",significantly reduced mechanical allodynia
same,F,"[1]; PO, 100 mg/kg, mean",~100%
same,clearance,[1]; [5],4 mL/min/kg
same,half-life,[1]; [5],1.08 h
same,Vd,"[1]; male, CD IGS, plasma, IV, 3 mg/kg, mean, read-out: Vss",0.287 L/kg
same,Cmax,[1]; [6],66000 ng/mL
same,half-life,[1]; [6],2.07 h
same,bioavailability,"[1]; male, CD IGS, plasma",90 to 100%
same,stability as measured by XRPD and Raman,[3]; 40° C./75% RH,no instability
same,stability as measured by XRPD and Raman,[3]; 80° C.,no instability
same,analgesic effect (thermal hyperalgesia / mechanical threshold),[4],efficacious in relieving the pain
"O=C([O-])c1ccc(Nc2cc(N3CCN(C4CCCCC4)CC3)c3noc4c3c2C(=O)c2ccccc2-4)cc1.[Na+] [Form A, Sodium 4-((3-(4-cyclohexylpiperazin-1-yl)-6-oxo-6H-anthra[1,9-cd]isoxazol-5-yl)amino)benzoate]",stability of the polymorphic form,[3]; 40° C./75% RH and 80° C.,stable polymorphic form
"NCC1(CC(=O)O)CCCCC1 [gabapentin, reference compound]","observed side effects (drowsiness, motor incoordination, abnormality)",CCI rats,drowsiness or motor incoordination
